Laboratory results published in patent US20250066369A1, “BICYCLIC PHTHALAZIN-1(2H)-ONE DERIVATIVES AND RELATED USES” (NodThera Limited, priority 2022, published 2025).

Test system: IL-1β release upon NLRP3 activation in peripheral blood mononuclear cells (PBMC)
Assay: PBMC IC50 determination assay: inhibition of IL-1β release upon NLRP3 activation
Format: cell-based
Settings: PBMC, PBMC primed with LPS 3 h, compound 30 min, stimulated with ATP (5 mM) or nigericin (10 μM) 1 h; IL-1β by ELISA (Protocol A) or HTRF (Protocol B)
Protocol: PBMC IC50 determination assay. The compounds of the present disclosure were tested for their inhibitory activity against IL-1β release upon NLRP3 activation in peripheral blood mononuclear cells (PBMC).
Protocol A. PBMC were isolated from buffy coats by density gradient centrifugation on Histopaque-1077 (Sigma, cat no. 10771). Isolated cells were seeded into the wells of a 96-well plate and incubated for 3 h with lipopolysaccharide (LPS). Following medium exchange, the compounds of the present disclosure were added (a single compound per well) and the cells were incubated for 30 min. Next, the cells were stimulated either with ATP (5 mM) or nigericin (10 μM) for 1 h and the cell culture media from the wells were collected for further analysis.
The release of IL-1β into the media was determined by a quantitative detection of IL-1β in the media using an IL-1β enzyme-linked immunosorbent assay (ELISA) Ready-SET-Go!, eBioscience cat. No. 88-7261-88. Briefly, in a first step, high affinity binding plates (Corning, Costar 9018 or NUNC Maxisorp Cat No. 44-2404) were coated overnight at 4° C. with specific capture antibody included in the kit (anti-human IL-1β ref. 14-7018-68). Subsequently, plates were blocked with blocking buffer for 1 h at room temperature (rt) and after washing with a buffer (PBS with 0.05% Tween-20) incubated with protein standard and culture media. After 2 h of incubation at rt, plates were washed and incubated with biotinylated detection antibody included in the kit (anti-human IL-1β Biotin ref 33-7110-68) for 1 h at rt. Plates were washed and incubated with HRP-streptavidin for 30 min at rt and washed again. The signal was developed after addition of 3,3′,5,5′-tetramethylbenzidine-peroxidase (TMB) until colour appeared and the reaction was stopped by 2 M H2SO4. A microplate spectrophotometer (BioTek) was used to detect signals with 450 nm. The detection range of IL-1β ELISA was […].
Protocol B. PBMC were isolated from buffy coats by density gradient centrifugation on Histopaque-1077 (Sigma, cat no. 10771). Isolated cells were seeded into the wells (280,000 cells/well) of a 96-well plate and incubated for 3 h with lipopolysaccharide (LPS, 1 μg/mL diluted 1000× from a 1 mg/mL stock solution). The compounds of the present disclosure were added (a single compound per well) and the cells were incubated for 30 min. Next, the cells were stimulated with ATP (5 mM final concentration diluted 20× from a 100 mM stock solution) for 1 h and the cell culture media from the wells were collected for further analysis.
The release of IL-1β into the media was determined by quantitative detection of IL-1β in the media using HTRF®, CisBio cat. No. 62HIL1BPEH. Briefly, cell culture supernatant were dispensed directly into the assay plate containing antibodies labelled with the HTRF® donor and acceptor. A microplate spectrophotometer (BMG) was used to detect signals at 655 nm and 620 nm. The detection range of IL-1β HTRF® was 39-6500 μg/mL.

SMILES	IC50
Cc1nn(CC(=O)Nc2ncccn2)c(=O)c2ccc(C3CC3)nc12 [Compound 34, 2-(2-Cyclopropyl-8-methyl-5-oxo-pyrido[2,3-d]pyridazin-6-yl)-N-pyrimidin-2-yl-acetamide]	1 to 3 µM
CC(C)c1nn(CC(=O)N[C@@H]2CCCN(C3CC3)C2)c(=O)c2cc(Cl)sc12 [Compound 10, 2-(2-Chloro-7-isopropyl-4-oxo-thieno [2,3-d]pyridazin-5-yl)-N-[(3R)-1-cyclopropyl-3-piperidyl]acetamide]	1 to 3 µM
CCNc1cc2c(C(C)C)nn(C3(C(=O)Nc4ncccn4)CC3)c(=O)c2s1 [Compound 110, 1-[2-(Ethylamino)-7-oxo-4-(propan-2-yl)-6H,7H-thieno[2,3-d]pyridazin-6-yl]-N-(pyrimidin-2-yl)cyclopropane-1-carboxamide]	3 to 10 µM
CC(C)c1nn(CC(=O)NC2CC3(COC3)C2)c(=O)c2ccc(C3CC3)nc12 [Compound 25, 2-(2-Cyclopropyl-8-isopropyl-5-oxo-pyrido[2,3-d]pyridazin-6-yl)-N-(2-oxaspiro[3.3]heptan-6-yl)acetamide]	1 to 3 µM
CCn1cc2c(=O)n(CC(=O)N[C@@H]3CCCN(C)C3)nc(C(C)C)c2n1 [Compound 6, 2-(2-Ethyl-7-isopropyl-4-oxo-pyrazolo[3,4-d]pyridazin-5-yl)-N-[(3R)-1-methyl-3-piperidyl]acetamide]	10 to 50 µM
CC(C)c1nn(CC(=O)N[C@H]2C[C@@](C)(O)C2)c(=O)c2cn(C(C)C)nc12 [Compound 68, 2-(2,7-Diisopropyl-4-oxo-2,4-dihydro-5H-pyrazolo[3,4-d]pyridazin-5-yl)-N-((cis)-3-hydroxy-3-methylcyclobutyl)acetamide]	1 to 3 µM
CCNc1cc2c(C)nn(CC(=O)Nc3ncccn3)c(=O)c2s1 [Compound 98, 2-[2-(Ethylamino)-4-methyl-7-oxo-6H,7H-thieno[2,3-d]pyridazin-6-yl]-N-(pyrimidin-2-yl)acetamide]	1 to 3 µM
CNc1cc2c(C(C)C)nn(C3(C(=O)Nc4ncccn4)CC3)c(=O)c2s1 [Compound 113, 1-[2-(Methylamino)-7-oxo-4-(propan-2-yl)-6H,7H-thieno[2,3-d]pyridazin-6-yl]-N-(pyrimidin-2-yl)cyclopropane-1-carboxamide]	10 to 50 µM
Cc1nn(CC(=O)Nc2ncc(C#N)cn2)c(=O)c2cc(C3CC3)oc12 [Compound 91, N-(5-Cyanopyrimidin-2-yl)-2-{2-cyclopropyl-7-methyl-4-oxo-4H,5H-furo[2,3-d]pyridazin-5-yl}acetamide]	0.1 to 1 µM
CC(C)c1nn(C2(C(=O)Nc3ncc(F)cn3)CC2)c(=O)c2cn(C(C)C)nc12 [Compound 51, 1-(2,7-Diisopropyl-4-oxo-2,4-dihydro-5H-pyrazolo[3,4-d]pyridazin-5-yl)-N-(5-fluoropyrimidin-2-yl)cyclopropane-1-carboxamide]	0.1 to 1 µM
CC(C)c1nn(CC(=O)NC2CC3(COC3)C2)c(=O)c2cnc(C3CC3)cc12 [Compound 18, 2-(7-Cyclopropyl-1-isopropyl-4-oxo-pyrido[3,4-d]pyridazin-3-yl)-N-(2-oxaspiro[3.3]heptan-6-yl)acetamide]	10 to 50 µM
CNc1cc2c(C)nn(CC(=O)Nc3ncco3)c(=O)c2s1 [Compound 119, 2-[4-Methyl-2-(methylamino)-7-oxo-6H,7H-thieno[2,3-d]pyridazin-6-yl]-N-(1,3-oxazol-2-yl)acetamide]	1 to 3 µM
CCOc1cc2c(C(C)C)nn(CC(=O)Nc3ncccn3)c(=O)c2s1 [Compound 107, 2-[2-Ethoxy-7-oxo-4-(propan-2-yl)-6H,7H-thieno[2,3-d]pyridazin-6-yl]-N-(pyrimidin-2-yl)acetamide]	1 to 3 µM
CNc1cc2c(C)nn(CC(=O)Nc3ncccn3)c(=O)c2s1 [Compound 118, 2-[4-methyl-2-(methylamino)-7-oxo-6H,7H-thieno[2,3-d]pyridazin-6-yl]-N-(pyrimidin-2-yl)acetamide]	1 to 3 µM
